From a melting point compilation (Tetko et al.; mined from patent text by program, amines drawn as free bases though some values may be those of a salt) come the findings set out here.

The melting point is the temperature of the solid-liquid transition. Turning to `O=C(Cl)c1cc(F)c(Cl)c([N+](=O)[O-])c1Cl`, the melting point was 35 to 37 °C.

`O=C(NCN1CCN(c2ccccc2Cl)CC1)c1ccccc1` came in with a melting point of 145 to 147 °C. The value for `COP(=O)(Cc1cc(C(C)(C)C)c(O)c(C(C)(C)C)c1)c1ccccc1` (centres undefined) was 112 to 114 °C. In the case of `CCOC(=O)C1COc2ccc(NC(C)=O)cc2O1` (centres undefined), the melting point fell in the range of 138 to 140 °C.

`CC1CN(c2c(F)cc3c(=O)c(C(=O)O)cn(C4CC4)c3c2OC(F)F)CCN1` (centres undefined): the melting point was in the range of 223 to 225 °C. Next, `CCOc1nc2c(nc1C(=O)O)c(C)nn2CC`: 172 °C; `CN(C)C(=S)C1CC(C)(C)Oc2ccc([N+](=O)[O-])cc21` (centres undefined): 158 to 160 °C. Next, `COc1ccc(C(O)Cc2ccncc2)c2c1OCC2C` (centres undefined): 96 to 100 °C.

Take `CCc1nc2c(cnn2CC)c(NC2CCOCC2)c1CNC(=O)c1cc(C)cc(C(=O)NCc2cccc(-c3cccc(C=O)c3)c2)c1`: the melting point lay within 109 to 112 °C. In turn, `Cc1cn(C)cc(-c2cccc(Cl)c2)c1=O` had a melting point of 143 to 144 °C. Molecule `CC[C@H](C)[C@H](N)C(=O)NC(C)COc1ccc(C#N)cc1` (some centres undefined) showed a melting point of 64 to 67 °C. Consider `CCN(CC)CC(=O)Nc1ccc([N+](=O)[O-])cc1`, for which the melting point was in the range of 65 to 66 °C.

The molecule `Cc1nc(-c2ncn3c2COC(=O)c2c(Cl)cccc2-3)no1` gave a melting point of 253 to 255 °C. For `CCCCCCCCc1cc2c(s1)NC(=O)CN=C2c1ccccc1OC`, the melting point lay within 128 to 130 °C.

The molecule `CC(C)Cn1cc(C(=O)Nc2nccs2)c2ccc(Cl)cc21` came in with a melting point of 200 to 202 °C. Take `CCC(=O)Nc1cc(S(=O)(=O)c2ccccc2)ccc1NC(=NC(=O)OC)NC(=O)OC`: the melting point was determined as 137 °C. In turn, `CS(=O)(=O)Nc1cccc(Nc2nc(N3CCN(c4ccncc4)CC3)c3nc[nH]c3n2)c1` displayed a melting point of 227 to 230 °C. Next, `COCCNc1cc(C)n(COC)c(=O)c1[N+](=O)[O-]`: 172 to 173 °C; `CNC1=NN(C(=O)c2ccccc2F)C(C)(C)S1`: 136 to 140 °C. The value for `O=C1NCCc2c(OCCCCl)cccc21` was 132 to 133 °C; that for `CCC1CCC2C3CCC4CC(O)CCC4(C)C3C(N(C)C)CC12C` (centres undefined) was 147 to 150 °C; that for `O=C(O)c1nc(-c2ccc(Cl)cc2Cl)c(-c2ccc(Br)cc2)s1` was 94 to 95 °C. Next, `Cc1cccc(C(=O)O)c1N(C)S(=O)(=O)c1ccc(OCCCNC(=O)c2cc3ccccc3o2)cc1`: 184 to 186 °C. Consider `CC1(C)OC(=O)N2CCNCC21` (centres undefined), for which the melting point lay within 92 to 93 °C.

Regarding `COc1ccc(S(=O)(=O)N2c3ccccc3-c3ccccc3C2C(C)(C)C)cc1` (centres undefined), the melting point lay in the range of 156 to 158 °C. The value for `CSc1ccc(C(=O)c2cc(-c3ccc(S(C)(=O)=O)cc3)c(N3CCOCC3)s2)cc1` was 160 °C. `CCOC(=O)C(C)(C)Sc1ccc(NCCn2c(C)nc3ccccc3c2=O)cc1` had a melting point of 226 to 228 °C. Next, `CC(=O)c1cc2c(cc1O)CCCC2`: 70 to 72 °C.

The molecule `COc1ccc(-c2ccn(C)c2-c2ccc(OC)cc2)cc1` came in with a melting point of 126 to 127 °C. With `CCOC(=Cc1ccncc1)C(C)=O`, the melting point was in the range of 84 to 88 °C.

On to `CC1(C)CCC(C)(C)c2cc(C(O)COc3ccc(CO)c(O)c3)ccc21` (centres undefined), for which the melting point was 110 to 115 °C. Regarding `CCCC(=O)NCc1ccc(C(=O)O)cc1`, the melting point lay within 186 to 188 °C. Next, `Cc1cc(C23CC4CC(CC(C4)C2)C3)ccc1NC(=O)c1cc([N+](=O)[O-])ccc1Br`: 229 °C; `CCn1cc(C(=O)O)c(=O)c2cc(F)c(N3CCN4CCC3C4)nc21` (centres undefined): 228 to 229 °C. Take `Cc1nc(N)sc1-c1ccnc(CC2CC2)n1`: the melting point was 198 to 200 °C. Next, `CSc1ncc2cc(Oc3ccc(F)cc3F)c(NS(C)(=O)=O)nc2n1`: 199 to 204 °C. The molecule `CC(=O)Oc1c(C)cc(C=CC(=O)Nc2cnc3c(C)cc(C)cc3c2-c2ccccc2Cl)cc1C` gave a melting point of 207 to 208 °C.

As to `Cc1oc(COc2ccccc2/C=C/C=C/C#N)nc1-c1ccccc1`, the melting point is 128 to 129 °C.

With `CC(C)(C)c1cc(C(=O)NCC(=O)Nc2ccc(N=C(N)c3cccs3)cc2)cc(C(C)(C)C)c1O`, the melting point was over 250 °C. Next, `CCOC(=O)c1cccc(-c2ccc3c(n2)C(Oc2ccc(Cl)cc2Cl)CC3)c1` (centres undefined): 129 to 130 °C; `COC(=O)c1ccc(C)nc1Oc1nc(OC)cc(OC)n1`: 99 to 103 °C.

`CCOC(=O)Cn1cccc1-c1nc(-c2ccc(OC)cc2)c(-c2ccc(OC)cc2)s1` returned a melting point of 132 to 136 °C. The value for `COc1ccc2c(c1)c(N1CCN(C)CC1)nn2S(=O)(=O)c1ccccc1` was 165 to 167 °C. `Cc1ccc(Oc2nc3nc(C)cc(C)n3n2)c(C)c1` gave a melting point of 133 to 136 °C. Next, `Oc1ccc(O)c2cc3ccccc3cc12`: 167 to 169 °C; `N#CC1(Cl)C=C(O)C=NC1` (centres undefined): 182 to 184 °C; `Cc1ccc(S(=O)(=O)OCCc2nc(-c3ccc(Br)cc3)oc2C)cc1`: 136 °C.

In the case of `O=c1[nH]c(Cc2ccccc2)ccc1CCl`, the melting point lay in the range of 142 to 145 °C.

In turn, `c1cc2ccc3nnsc3c2cn1` showed a melting point of 150 to 153 °C.

On to `COc1cc2cc(C=Cc3ccccc3Cl)[nH]c2cc1OCc1ccccc1`, for which the melting point lay within 192 to 194 °C.

`N[C@@H]1C(=O)N(S(=O)(=O)O)[C@H]1C1CCCCC1` (relative stereo) displayed a melting point of 135 to 138 °C. Turning to `COc1ccc2cc(-c3noc(C)n3)c(=O)oc2c1`, the melting point was 218 to 220 °C. Next, `Cc1c(C(=O)c2cccc(Cl)c2Cl)c2cccc(Br)c2n1CCCCl`: 139 °C. The molecule `COc1ccc(-n2nc(Sc3ccc(C)cc3C)c(C)c(C#N)c2=O)cc1` came in with a melting point of 166 to 168 °C. Next, `CS(=O)(=O)c1nnc(-c2ccccc2Nc2cccc(C(F)(F)F)c2)o1`: 144 to 148 °C; `COc1cc(N)c(Cl)cc1C(=O)NC1CCN(CCCC(=O)N2C(C)CCCC2C)CC1OC` (centres undefined): 202 °C. `CC(C)(C)OC(=O)CNS(=O)(=O)c1ccc(N2CCC(NC[C@H](O)c3ccc(O)c(NS(C)(=O)=O)c3)CC2)cc1` showed a melting point of 113 to 115 °C. The value for `CCNC(=O)c1sc(Oc2ccc3c(c2)OCO3)c2c1CCc1cnn(C)c1-2` was 138 to 139 °C; that for `Cc1ccc(Nc2nc3ccccc3c3[nH]c(C4CCCC4)nc23)cc1` was 125 to 126 °C; that for `O=C(O)c1ccc(-c2coc3ccc(-c4ccccc4)cc23)cc1` was 245 to 248 °C. Next, `C#CCOCCn1c(CN2CCCN(C)CC2)nc2ccccc21`: 133 to 136 °C; `OC(CC1CCNCC1)c1cc(-c2ccccc2)nc2ccccc12` (centres undefined): 147 °C; `Cc1nc2scc(C)n2c(=O)c1CCN1CCC(c2c[nH]c3ccccc23)CC1`: 275 °C. In turn, `NS(=O)(=O)c1cc(C(=O)OCC(=O)N[C@@H](CCO[N+](=O)[O-])CO[N+](=O)[O-])c(NCc2ccco2)cc1Cl` displayed a melting point of 93 to 95 °C.
